Measured values reported in article PMC3006138, “Fexinidazole – A New Oral Nitroimidazole Drug Candidate Entering Clinical Development for the Treatment of Sleeping Sickness” (PLoS Neglected Tropical Diseases, 2010).

What was measured:
T. b. brucei GVR35 = experiment: Chronic (stage 2) infection mouse model; format: in vivo
Description: Female NMRI mice were infected via intraperitoneal injection with bloodstream forms of T. b. rhodesiense STIB900 or T. b. gambiense 130R and treated with test drugs daily for 4 consecutive days, starting on day 3 or 7 after infection, respectively, or with bloodstream forms of T. b brucei GVR35 and treated daily from day 21 after infection for 5 days. Parasitemia was evaluated by tail blood examination and surviving, aparasitaemic mice at 60, 90, or 180 days, respectively, were considered cured.

[1] = Hepatocyte intrinsic clearance and metabolite profile; format: in vitro ADME, dog; conditions: male, beagle, dog, cryopreserved hepatocytes, 1 µM
Description: Fexinidazole was incubated with cryopreserved hepatocytes from male CD-1 mice, male Sprague Dawley rats, male beagle dogs, male cynomolgus monkeys, and from pooled white or African-American human donor samples (purchased commercially), at concentrations of 1 µM and 10 µM. […] The incubated samples were analyzed by LC-MS after extraction into acetonitrile.
A quality control analysis of fexinidazole was performed via 1H-NMR in DMSO and LC- […]
provided by the Swiss Tropical Institute (Basel, Switzerland).
Reagents and solvents were of analytical grade and obtained from Sigma-Aldrich (St. Louis, […]
Cryopreserved hepatocytes from the male CD1 mouse, lot CSI; male Sprague Dawley rat, lot LPL; male beagle dog, lot BWX; male cynomolgus monkey, lot EHH; and pooled human samples, lot MJI, were purchased from In Vitro Technologies Inc (Baltimore, Maryland, […]
5.4. In vitro Incubations
On the day of the experiment a 10 mM stock solution of fexinidazole in DMSO was prepared and, within 3 hours, aliquots of this freshly prepared solution, after suitable dilution, were added to the incubation matrix, to reach fexinidazole final concentrations of 1 and 10 µM. The final percentage of DMSO was 0.01% in the incubation samples for the […]
On the day of experiment, the cryopreserved hepatocytes were thawed following the detailed instructions provided by the supplier.
The number of viable cells was determined using a Trypan Blue exclusion method.
5.4.1. Intrinsic Clearance Study […]
µM with mouse, rat, dog, monkey and human hepatocytes (300000 cells/mL for the mouse and 1 million cells/mL for the other species) in a final incubation volume of 0.75 mL […]
Incubations were performed in duplicate in a 48-well plate under shaking. Sampling was performed using an automatic liquid handling system (Multiprobe II EX, Packard). At 0, 1, 5, 10, 15, 20, 30, 60 and 120 minutes, 50 µL aliquots of the incubates were taken, then 80 µL of ice-cold acetonitrile and 20 µL of 1 µM warfarin in acetonitrile (internal standard) were added, and samples centrifuged at 2000 rpm for 20 min. The supernatant was analyzed by LC-MS/MS. […]
the medium alone at t = 0 and 120 minutes.
For the determination of phase I and phase II activity of hepatocytes, 7-ethoxycoumarin (7-EC) 1 µM, and 7-hydroxycoumarin (7-HC) 30 µM were used as positive controls and incubated under the same conditions as fexinidazole. Aliquots of incubates were taken at 0, 10, 20, 30, 60 and 120 minutes and processed as fexinidazole samples.
5.4.2. Metabolite Profile Study
For metabolite profiling, fexinidazole was incubated at a concentration of 10 µM with mouse, rat, dog, monkey and human hepatocytes (300000 cells/mL for the mouse and 1 million cells/mL for the other species) in a final incubation volume of 2 mL Leibovitz L-15 […]
Aliquots of the incubation samples were taken at t = 0, 30 and 120 minutes; the metabolism was stopped by the addition of an equal volume of cold acetonitrile and the samples centrifuged at 1500 rpm for 20 min. The supernatant was stored at -20°C until analysis. Control incubations were performed with the compound in the medium alone […]
5.5. Analysis of Samples for Intrinsic Clearance Determination
The analysis of the samples for intrinsic clearance determination was performed by an LC-MS/MS method, using the following conditions:
HPLC Equipment and Conditions
HPLC system Agilent 1100 binary pump (Agilent, Palo Alto, USA)
Autosampler CTC Pal (Alfatech, San Jose, USA)
Analytical column Guard Column SB-C8 4.6 x 12.5 mm, 5 µm (Zorbax)
Column temperature ambient
Mobile phase A 10 mM ammonium formate pH 4.0: acetonitrile (95:5, v:v)
Mobile phase B 10 mM ammonium formate pH 4.0: acetonitrile (5:95, v:v) […]
Gradient conditions Step Total time (min) flow (µL/min) %A % B […]
MS Equipment and Conditions
Mass spectrometer API 4000 Triple Quadrupole (MDS-Sciex, Toronto, […]
Source Turbo Ion Spray (TIS)
Ion mode Positive for fexinidazole and 7-EC.
Negative for 7-HC, 7-HC sulphate and 7-HC glucuronide.

in vivo = conditions: both sexes, beagle, dog, po
Description: In the dog repeated-dose toxicokinetic study, fexinidazole was given orally by gavage once a day for 28 days to five (control and high dose) or three (low and mid dose) beagle dogs/sex/dose at the doses of 0 (control group), 50, 200, or 800 mg/kg/day. The control group received the vehicle alone (same as above). Systemic exposure to fexinidazole and of its sulfoxide and sulfone metabolites was evaluated on days 1, 14 and 28 in the same animals used for the toxicological study. Samples were taken at predose, and 30 min, 1, 2, 4, 8 and 24 h after dosing on days 1, 14, and 28, and in addition at 48 and 72 h after treatment on day 28.

CSc1ccc(OCc2ncc([N+](=O)[O-])n2C)cc1 [Fexinidazole, 1-methyl-2-((p-(methylthio)phenoxy)methyl)-5-nitroimidazole]
Cured/infected (T. b. brucei GVR35; 50 mg/kg×5 days po): 0/8 | Mean relapse time (T. b. brucei GVR35; 50 mg/kg×5 days po): 41.3 days | cure (T. b. brucei GVR35; 100 mg/kg twice per day for 5 days po, groups of 5 mice, two independent experiments): 100% | Cured/infected (T. b. brucei GVR35; 100 mg/kg×5 days po): 2/8 | Mean relapse time (T. b. brucei GVR35; 100 mg/kg×5 days po): >82.1 days | Cured/infected (T. b. brucei GVR35; 200 mg/kg×5 days po): 7/8 | Mean relapse time (T. b. brucei GVR35; 200 mg/kg×5 days po): >163.8 days | half-life at 1 µM [1]: 1.1 min | CLint scaled at 1 µM ([1]; read-out: CLint in vitro): > 3000 mL/min/kg | hepatocyte CLint at 1 µM ([1]; read-out: CLint in vitro): 656 µL/min/1e6 cells | NOAEL at 28 days (in vivo): 200 mg/kg/day
